Converted amounts (≈) assume the structure as drawn. Like-named read-outs stand apart in the source and are kept apart here.
Legend:
Experiment in all cases: Broth microdilution MIC
[1] = test system: E. coli ATCC 25922; assay type: cell-based, Escherichia coli; details: E. coli ATCC 25922
Experimental: (§1) The process for preparing susceptibility test medium are the following steps: • a. Preparing Mueller Hinton Broth II medium by adding 22 grams powdered media to 1.0 liter distilled water; • b. Autoclaving (121° C., 15 psi, 15 minutes) and cooling the medium; • c. Adding Oxyrase® up to about 10% final volume and keeping at 35-37° C. in an incubator for 30 minutes; • d. Adding about 50 μL to each well of a 96 well microtiter plate; • e. Weighing drug and adding broth to drug to bring up to about (standard 128 μg/ml); • f. Adding 50 μL of the drug to the first column of the titer plate; • g. Diluting by two-fold serial diluting across or down the plate. • h. Preparing a Prompt™ inoculum at 10^8 CFU/ml; • i. Diluting inoculum 1:100 in the broth at […] in 9.9 ml (1:100) is 10^6 colony forming units (CFU) forming the adjusted inoculum; • j. Adding 50 μL of the adjusted inoculum to the wells of the microtiter plate; • k. Incubating the plates at 35-37° C. for 18-22 hours; and • l. Reading, with the unaided eye, the MIC.
(§2) The in vitro activities of tigecycline and control antibiotics were determined by the broth microdilution method as recommended by the NCCLS. (National Committee for Clinical Laboratory Standards, 2003. Methods for Dilution Antimicrobial Susceptibility Tests for Bacteria That Grow Aerobically; Approved Standards: M7-A6, Sixth ed, vol. 23., National Committee for Clinical Laboratory Standards Wayne, Pa.) was used for the standard procedures. MBH with 5% lysed horse blood was used for testing S. pneumoniae and Haemophilus Test Medium was used for testing H. influenzae. Oxyrase® (Oxyrase Inc, Mansfield, Ohio) was used according to the manufacturer's instructions by adding 1 ml of Oxyrase® to 50 ml of media. Media age studies were performed by preparing MHB in multiple flasks, then storing the media under various conditions. MICs were usually performed in duplicate on each day of testing. Storage under anaerobic conditions was conducted in an anaerobic chamber (MACS MG 1000, Don Whitley Scientific LTD). The pH of the media was determined by pH meter (Corning 430). A comparison of the in vitro activity of tigecycline by agar and broth dilution methodolgies with and without Oxyrase® against clinical isolates is shown in Table 1.

[2] = test system: S. pneumoniae ATCC 49619; assay type: cell-based
Experimental: as §1, §2

[3] = test system: Staphylococcus aureus GC2216 ATCC Control; assay type: cell-based; details: for In Vitro Activity of Tigecycline: Broth, S. aureus GC2216 ATCC Control; for MIC: Staphylococcus aureus, S. aureus GC2216 (ATCC Control), read-out: Minimal Inhibitory Concentration
Experimental: as §1, §2

[4] = test system: Enterococcus faecalis GC4555 ATCC Control; assay type: cell-based; details: for In Vitro Activity of Tigecycline: Broth, E. faecalis GC4555 ATCC Control; for MIC: Enterococcus faecalis, E. faecalis GC4555 (ATCC Control), read-out: Minimal Inhibitory Concentration
Experimental: as §1, §2

[5] = test system: Escherichia coli GC2270 tet(M); assay type: cell-based; details: for MIC: Escherichia coli, read-out: Minimal Inhibitory Concentration
Experimental: as §1, §2

[6] = test system: Enterococcus faecalis GC2267 tet(L) + (M) + (S); assay type: cell-based; details: for In Vitro Activity of Tigecycline: Broth, E. faecalis GC2267 tet(L) + (M) + (S); for MIC: Enterococcus faecalis, read-out: Minimal Inhibitory Concentration
Experimental: as §1, §2

[7] = test system: Escherichia coli GC1073 tet(B) wt; assay type: cell-based; details: for In Vitro Activity of Tigecycline: Broth, E. coli GC1073 tet(B) wt
Experimental: as §1, §2

[8] = test system: Escherichia coli GC4559 parent GC4560; assay type: cell-based; details: E. coli GC4559; for In Vitro Activity of Tigecycline: Broth; for MIC: Escherichia coli, read-out: Minimal Inhibitory Concentration
Experimental: as §1, §2

[9] = Table 8, Mueller Hinton Broth, n = 320
[10] = Table 9, Mueller Hinton Broth + Oxyrase, n = 33
[11] = Table 9, Mueller Hinton Broth, n = 90
[12] = Table 8, Mueller Hinton Broth + Oxyrase, n = 240
[13] = 336 h, Aged Media (two weeks at RT)

With `CN(C)c1cc(NC(=O)CNC(C)(C)C)c(O)c2c1C[C@H]1C[C@H]3[C@H](N(C)C)C(O)=C(C(N)=O)C(=O)[C@@]3(O)C(O)=C1C2=O` [Tigecycline, tigecycline] the “Number of Occurrences of MIC 0.25 ug/ml” value [1, 9] was 210, the “Number of Occurrences of MIC 0.5 ug/ml” value [1, 9] was 23 and the “Number of Occurrences of MIC 1 ug/ml” value [1, 9] was 58. For the same molecule, the “Number of Occurrences of MIC 2 ug/ml” value [1, 9] was 4, the “Number of Occurrences of MIC 4 ug/ml” value [1, 9] was 1 and the “Number of Occurrences of MIC 0.03 ug/ml” value [1, 10] was 3. For the same molecule, the “Number of Occurrences of MIC 0.06 ug/ml” value [1, 10] was 13, the “Number of Occurrences of MIC 0.12 ug/ml” value [1, 10] was 14 and the “Number of Occurrences of MIC 0.25 ug/ml” value [1, 10] was 3. The “Number of Occurrences of MIC 0.06 ug/ml” value [1, 11] was 1, the “Number of Occurrences of MIC 0.12 ug/ml” value [1, 11] was 15 and the “Number of Occurrences of MIC 0.25 ug/ml” value [1, 11] was 47. The “Number of Occurrences of MIC 0.5 ug/ml” value [1, 11] was 27, the “Number of Occurrences of MIC 0.004 ug/ml” value [2, 12] was 6 and the “Number of Occurrences of MIC 0.008 ug/ml” value [2, 12] was 73. For the same molecule, the “Number of Occurrences of MIC 0.016 ug/ml” value [2, 12] was 137, the “Number of Occurrences of MIC 0.03 ug/ml” value [2, 12] was 21 and the “Number of Occurrences of MIC 0.06 ug/ml” value [2, 12] was 3. The “Number of Occurrences of MIC 0.016 ug/ml” value [2, 9] was 1, the “Number of Occurrences of MIC 0.03 ug/ml” value [2, 9] was 54 and the “Number of Occurrences of MIC 0.06 ug/ml” value [2, 9] was 188. The “Number of Occurrences of MIC 0.12 ug/ml” value [2, 9] was 48, the “Number of Occurrences of MIC 0.25 ug/ml” value [2, 9] was 29 and the “In Vitro Activity of Tigecycline” value ([3]; Oxyrase (2%)) was 0.12. The “In Vitro Activity of Tigecycline” value ([3]; no Oxyrase) was 0.50, the MIC [3, 13] was 0.25 µg/mL (≈ 0.427 µM) and the MIC ([3]; Fresh Media) was 0.12 µg/mL (≈ 0.205 µM). For the same molecule, the “In Vitro Activity of Tigecycline” value ([4]; Oxyrase (2%)) was 0.06, the “In Vitro Activity of Tigecycline” value ([4]; no Oxyrase) was 0.50 and the MIC [4, 13] was 0.25 µg/mL (≈ 0.427 µM). For the same molecule, the MIC ([4]; Fresh Media) was 0.03 µg/mL (≈ 0.0512 µM), the “In Vitro Activity of Tigecycline” value ([5]; Broth, no Oxyrase, E. coli GC2270 tet(M)) was 0.50 and the MIC ([5]; 336 h) was 0.25 µg/mL (≈ 0.427 µM). The MIC [5] was 0.06 µg/mL (≈ 0.102 µM), the “In Vitro Activity of Tigecycline” value ([6]; Oxyrase (2%)) was 0.12 and the “In Vitro Activity of Tigecycline” value ([6]; no Oxyrase) was 0.50. The MIC ([6]; 336 h) was 0.25 µg/mL (≈ 0.427 µM), the MIC [6] was 0.12 µg/mL (≈ 0.205 µM) and the “In Vitro Activity of Tigecycline” value ([7]; Oxyrase (2%)) was 0.12. The “In Vitro Activity of Tigecycline” value ([7]; no Oxyrase) was 0.50, the MIC ([7]; Escherichia coli, read-out: Minimal Inhibitory Concentration) was 0.12 µg/mL (≈ 0.205 µM) and the “In Vitro Activity of Tigecycline” value ([8]; Oxyrase (2%)) was 0.12. For the same molecule, the “In Vitro Activity of Tigecycline” value ([8]; no Oxyrase) was 0.50, the MIC [8, 13] was 0.12 µg/mL (≈ 0.205 µM) and the MIC ([8]; Fresh Media) was 0.06 µg/mL (≈ 0.102 µM).

Reference: patent US20050130252A1, “Stabilized susceptibility tests of aerobic pathogens” (Wyeth Holdings Corporation, priority 2003, published 2005)
